Assay results as given in patent US20170153225A1, “A METHOD OF SCREENING FOR A COMPOUND CAPABLE OF STIMULATING GLUCOSE TRANSPORT INTO BROWN AND/OR BRITE ADIPOCYTES OF A MAMMAL, A KIT FOR USE IN SUCH A METHOD” (ATROGI AB, priority 2014, published 2017).

Experiments:
BAT = assay: Glucose uptake in brown fat (BAT) in vivo, [3H]-2DG; parameters: species or system FVB mice; settings: n=5
Description: Groups of FVB mice were fasted for 5 hours prior to study and anesthetized with pentobarbital (60 mg per kg of body weight, i.p.). Mice were then injected with a specific mTOR inhibitor KU 0063794 (10 mg/kg i.p.) or DMSO as control. Isoproterenol (1 mg/kg ip) or saline were injected after 10 min and [^3H]-2DG (130 μCi/kg body weight ip) 20 min prior to end time. BAT was dissected […], and tissues digested with 0.5M NaOH overnight. Glucose uptake was measured by liquid scintillation counting. All experiments were conducted with ethical permission (N388/12) from the North Stockholm Animal Ethics Committee.

GLUT1 [1] = assay: Immunocytochemistry of total cellular GLUT1 in permeabilized cells; format: cell-based, NMRI mice; settings: isoproterenol 1 μM, 2 h
Description: (§1) Brown adipocytes were isolated as described in Example 1 and seeded onto BD Falcon culture chamber slides (BD Biosciences, Franklin Lakes, N.J.). Cells were serum starved the night prior to experiment. On day 7 the cells were challenged with inhibitors for 30 min before being stimulated for 1-2 hours with drugs as indicated. Cells were washed with warm PBS and fixed for 15 min (4% formaldehyde in PBS). Cells were washed with PBS and formaldehyde quenched with 50 mM glycine in PBS, and washed three times for 5 min each with PBS. Cells were blocked for 1 h at room temperature with 8% BSA in PBS, and washed three times for 5 min each with PBS. For permeabilizing the cells, the cells were treated with 10% triton x in PBS (dilution 1:40) before blocking. Primary antibody (2 μg/ml GLUT1 antibody (AbCam, Cambridge, UK), 1.5% BSA in PBS) was added and slides incubated over night at 4° C. The next day the cells were washed three times for 5 min each with PBS. Slides were then incubated with secondary antibody (3 μg/ml alexa488 conjugated goat antirabbit IgG (Invitrogen, Paisley, UK), 3% BSA in PBS) and washed three times for 5 min each with PBS. Slides were mounted with mounting media (8% 1,4-diazabicyclooctane, 75% glycerol in PBS) and sealed.

[2] = system: mature brown adipocytes primary cultures; assay: 2-deoxy-D-[1-3H]-glucose uptake in vitro in mature primary brown adipocytes; format: cell-based, NMRI mice; settings: for glucose uptake: isoproterenol 1 μM, 2 hours, p=0.0042, n=4-6
Description: Brown fat primary cells were isolated from NMRI mice (3-4 week-old) purchased from Nova-SCB AB, Sweden. All experiments were conducted with ethical permission (N388/12) from the North Stockholm Animal Ethics Committee. Animals were euthanized by CO2, and brown fat precursor cells were isolated from the intrascapular, axillary and cervical brown adipocyte depots as previously described (Hutchinson, Bengtsson 2006, Hutchinson, Chernogubova et al. 2006). The tissue was minced and transferred to a HEPES-buffered solution (pH 7.4) containing 0.2% (wt/vol) crude collagenase type II. Routinely, tissue from 6 mice was digested in 10 ml of the HEPES-buffered solution. The tissue was digested for 30 minutes at 37° C., with constant vortexing. The digest was filtered through a 250 μm filter and the solution incubated on ice for 15 min to allow the mature adipocytes and fat droplets to float. The infranatant was filtered through a 25 μm filter, centrifuged (10 min, 700×g), the pellet resuspended in DMEM (4.5 g D-glucose/l) and recentrifuged. The pellet was finally resuspended in 0.5 ml cell culture medium per mouse dissected. The cell culture medium consisted of DMEM (4.5 g D-glucose/l) supplemented with 10% newborn calf serum, 2.4 nM insulin, […], 50 IU/ml penicillin, 50 μg/ml streptomycin and 25 μg/ml sodium ascorbate. Aliquots of 0.1 ml cell suspension were cultured in 12-well culture dishes with 0.9 ml of cell culture medium. Cultures were incubated in a 37° C. humidified atmosphere of 8% CO2 in air. On days 1, 3 and 5, the cell culture medium was renewed. Cells were used on day 7.
Glucose uptake in vitro was performed as previously described (Yamamoto, Hutchinson et al. 2007). On day 7 the cells were treated with inhibitors for 30 min before addition of isoproterenol for 2 hours, unless otherwise indicated. […] Reactions were terminated by washing in ice-cold PBS, cells lysed (400 μl of 0.2 M NaOH, 1 h at 60° C.) and the incorporated radioactivity determined by liquid scintillation counting.

GLUT1 [3] = assay: Western blot of total GLUT1 protein content; format: cell-based, NMRI mice; settings: isoproterenol 1 μM, 0-2 h; for total GLUT1 protein content (Western blot): in presence or absence of 1 μM KU 0063794, p=0.0067 and p=0.0017, n=3
Description: Brown adipocytes were grown as described in Example 1 and differentiated in 12 well plates and serum starved the night prior to experiment. On day 7 the cells were challenged with inhibitors for 30 min before being stimulated with drugs as indicated. Lysates were prepared in prewarmed (65° C.) sample buffer (62.5 mM Tris pH 6.8, 2% SDS, 10% glycerol, 50 mM dithiothreitol, 0.1% bromophenol blue) and boiled for 5 min. Samples were loaded on a 8 or 12% acrylamide gel and separated for 2 hours at 100 V. Proteins were transferred to Hybond-P polyvinylidene difluoride membranes (pore size […]; Amersham Biosciences, Arlington Heights, Ill.). The primary GLUT1 antibody (diluted 1:1000) was from AbCam (Cambridge, UK). The primary antibody was detected using a secondary antibody (horseradish peroxidase-linked anti-rabbit IgG, Cell Signaling) diluted 1:2000 and enhanced chemiluminescence (ECL, Amersham Biosciences). Images were quantified using Image J 1.46r. […] Western blot of GLUT1 protein content in mature brown adipocytes was quantified after isoproterenol stimulation (1 μM, 0-2 h) in presence or absence of 1 μM KU 0063794.

mTOR = mTOR phosphorylation at Ser2481 and Ser2448 by western blot; format: cell-based; settings: 1 μM isoprenaline, 2 hours
Excerpt: The immunoblot is representative of three experiments performed.

GLUT1 [4] = assay: Immunocytochemistry of plasma membrane GLUT1 (translocation) in non-permeabilized cells; format: cell-based, NMRI mice; settings: KU 0063794 1 μM, isoproterenol 1 μM, 2 h, p=0.0153, n=3
Description: as §1

mouse rictor = assay: Rictor knock down with siRNA, then glucose uptake or western blotting; format: cell-based; settings: 2.5 μg/ml siRNA
Description: Primary brown adipocytes were used on day 3 and transfected with K2 Transfection System (Biontex laboratories) according to manufacturer's protocol using 2.5 μg/ml of siRNA (sequence: […]) directed against mouse rictor (from Sigma). 24 h after transfection, glucose uptake or western blotting was performed as described above.

`CC(C)NCC(O)c1ccc(O)c(O)c1` (centres unmarked) [Isoproterenol] was tested, and the “glucose uptake in brown fat in vivo” value (BAT; isoproterenol 1 mg/kg ip) was “stimulated glucose uptake in vivo”, the “total cellular GLUT1 (de novo synthesis), permeabilized cells” value (GLUT1 [1]; p=0.0334, n=3) was “de novo synthesis can be stimulated” and the glucose uptake [2] was “increase glucose uptake”. For the same molecule, the glucose uptake ([2]; listed as isoproterenol) was “increases glucose uptake”, the “total GLUT1 protein content (Western blot)” value (GLUT1 [3]) was “significantly increase the amount of GLUT1” and the “total GLUT1 protein content (Western blot)” value (GLUT1 [3]; listed as isoproterenol) was “increased total GLUT1 content”. For the same molecule, the “mTOR phosphorylation at Ser2448” value (mTOR) was “not at Ser2448”.
With `COc1ccc(-c2ccc3c(N4CCOCC4)nc(N4C[C@@H](C)O[C@@H](C)C4)nc3n2)cc1CO` [KU 0063794] the “reduction of isoproterenol stimulated glucose uptake in vivo” value (BAT; KU 0063794 before isoproterenol 1 mg/kg ip, p=0.0175) was “significantly reduced”, the “effect of mTOR inhibitor on stimulated de novo synthesis of GLUT1, permeabilized cells” value (GLUT1 [1]; KU 0063794 1 μM) was “not inhibited by inhibition of mTOR” and the “effect of mTOR inhibitor on isoproterenol-increased GLUT1 content (Western blot)” value (GLUT1 [3]; KU 0063794 1 μM) was “mTOR independent manner”. The “inhibition of isoproterenol-stimulated translocation of GLUT1 to the plasma membrane” value (GLUT1 [4]) was “prevents the translocation of GLUT1 to the plasma membrane”.
For `CCC(=O)N1CCN(c2ccc(-n3c(=O)ccc4cnc5ccc(-c6cnc7ccccc7c6)cc5c43)cc2C(F)(F)F)CC1` [Torin-1], the “inhibition of isoproterenol stimulated glucose uptake” value ([2]; Torin-1 1 μM, 30 min before isoproterenol 1 μM) was “full inhibition of glucose uptake”.
For “siRNA directed against mouse rictor: siRNA (sequence: CAGAAAGCAATCGCAACTCACCACA) directed against mouse rictor (from Sigma) (chemistry not given here)”, the “inhibition of isoproterenol (GPCR) stimulated glucose uptake by rictor knock down” value (mouse rictor; 24 h after transfection, p=0.0105, n=3) was “fully inhibited” and the “rictor protein after knock down” value (mouse rictor; K2 transfection system) was “reduction of rictor protein”.
